# Source: patent publication US12471596B2 (priority 2019, dated 2025)
# What was measured:
# [1] = test system: Phytophthora infestans; experiment: whole plant or invertebrate; type: in vivo, Phytophthora infestans on tomato plants; settings: in Solanum lycopersicum, 24 h, read-out: control compared to the untreated check
# [2] = test system: Phytophthora infestans; experiment: microbe, parasite or virus in culture; type: cell-based; settings: in Secale cereale, 168 h, read-out: control compared to the untreated check
SMILES,pest or weed control at 50 ppm [1] [%],inhibition of growth at 30 ppm [2] [%]
"O=C(COc1cc(C(F)(F)F)ncn1)N1CCC(c2nc(C3=NOC(c4c(F)cccc4Cl)C3)cs2)CC1 (centres unmarked) [Compound 9, 1-(4-(4-(5-(2-chloro-6-fluorophenyl)-4,5-dihydroisoxazol-3-yl)thiazol-2-yl)piperidin-1-yl)-2-((6-(trifluoromethyl)pyrimidin-4-yl)oxy)ethan-1-one]",≥ 70,≥ 70
"O=C(COc1nccnc1C(F)(F)F)N1CCC(c2csc(C3=NOC(c4c(Cl)cccc4Cl)C3)n2)CC1 (centres unmarked) [Compound 13, 1-(4-(2-(5-(2,6-dichlorophenyl)-4,5-dihydroisoxazol-3-yl)thiazol-4-yl)piperidin-1-yl)-2-((3-(trifluoromethyl)pyrazin-2-yl)oxy)ethan-1-one]",≥ 70,≥ 70
"O=C(COc1cc(C(F)(F)F)ncn1)N1CCC(c2nc(C3=NOC(c4c(Cl)cccc4Cl)C3)cs2)CC1 (centres unmarked) [Compound 14, 1-(4-(4-(5-(2,6-dichlorophenyl)-4,5-dihydroisoxazol-3-yl)thiazol-2-yl)piperidin-1-yl)-2-((6-(trifluoromethyl)pyrimidin-4-yl)oxy)ethan-1-one]",≥ 70,≥ 70
"O=C(COc1ccnc(C(F)(F)F)n1)N1CCC(c2nc(C3=NOC(c4c(F)cccc4Br)C3)cs2)CC1 (centres unmarked) [Compound 15, 1-(4-(4-(5-(2-bromo-6-fluorophenyl)-4,5-dihydroisoxazol-3-yl)thiazol-2-yl)piperidin-1-yl)-2-((2-(trifluoromethyl)pyrimidin-4-yl)oxy)ethan-1-one]",≥ 70,≥ 70
"O=C(COc1ccnc(C(F)(F)F)n1)N1CCC(c2nc(C3=NOC(c4c(Cl)cccc4Cl)C3)cs2)CC1 (centres unmarked) [Compound 16, 1-(4-(4-(5-(2,6-dichlorophenyl)-4,5-dihydroisoxazol-3-yl)thiazol-2-yl)piperidin-1-yl)-2-((2-(trifluoromethyl)pyrimidin-4-yl)oxy)ethan-1-one]",≥ 70,≥ 70
"O=C(COc1ccnc(C(F)(F)F)n1)N1CCC(c2nc(C3=NOC(c4c(F)cccc4F)C3)cs2)CC1 (centres unmarked) [Compound 17, 1-(4-(4-(5-(2,6-difluorophenyl)-4,5-dihydroisoxazol-3-yl)thiazol-2-yl)piperidin-1-yl)-2-((2-(trifluoromethyl)pyrimidin-4-yl)oxy)ethan-1-one]",≥ 70,≥ 70
"O=C(COc1ccnc(C(F)(F)F)n1)N1CCC(c2nc(C3=NOC(c4c(Cl)cccc4C(F)(F)F)C3)cs2)CC1 (centres unmarked) [Compound 18, 1-(4-(4-(5-(2-chloro-6-(trifluoromethyl)phenyl)-4,5-dihydroisoxazol-3-yl)thiazol-2-yl)piperidin-1-yl)-2-((2-(trifluoromethyl)pyrimidin-4-yl)oxy)ethan-1-one]",≥ 70,≥ 70
"COc1nccnc1OCC(=O)N1CCC(c2nc(C3=NOC(c4c(F)cccc4Cl)C3)cs2)CC1 (centres unmarked) [Compound 25, 1-(4-(4-(5-(2-chloro-6-fluorophenyl)-4,5-dihydroisoxazol-3-yl)thiazol-2-yl)piperidin-1-yl)-2-((3-methoxypyrazin-2-yl)oxy)ethan-1-one]",≥ 70,≥ 70
"COc1nccnc1OCC(=O)N1CCC(c2nc(C3=NOC(c4c(Cl)cccc4C#N)C3)cs2)CC1 (centres unmarked) [Compound 26, 3-chloro-2-(3-(2-(1-(2-((3-methoxypyrazin-2-yl)oxy)acetyl)piperidin-4-yl)thiazol-4-yl)-4,5-dihydroisoxazol-5-yl)benzonitrile]",≥ 70,≥ 70
"COc1nccnc1OCC(=O)N1CCC(c2nc(C3=NOC(c4c(F)cccc4F)C3)cs2)CC1 (centres unmarked) [Compound 27, 1-(4-(4-(5-(2,6-difluorophenyl)-4,5-dihydroisoxazol-3-yl)thiazol-2-yl)piperidin-1-yl)-2-((3-methoxypyrazin-2-yl)oxy)ethan-1-one]",≥ 70,≥ 70
"COc1nccnc1OCC(=O)N1CCC(c2nc(C3=NOC(c4c(F)cccc4Br)C3)cs2)CC1 (centres unmarked) [Compound 28, 1-(4-(4-(5-(2-bromo-6-fluorophenyl)-4,5-dihydroisoxazol-3-yl)thiazol-2-yl)piperidin-1-yl)-2-((3-methoxypyrazin-2-yl)oxy)ethan-1-one]",≥ 70,≥ 70
"COc1nccnc1OCC(=O)N1CCC(c2nc(C3=NOC(c4c(Cl)cccc4OS(C)(=O)=O)C3)cs2)CC1 (centres unmarked) [Compound 29, 3-chloro-2-(3-(2-(1-(2-((3-methoxypyrazin-2-yl)oxy)acetyl)piperidin-4-yl)thiazol-4-yl)-4,5-dihydroisoxazol-5-yl)phenyl methanesulfonate]",≥ 70,≥ 70
"COc1ccnc(OCC(=O)N2CCC(c3nc(C4=NOC(c5c(Cl)cccc5C#N)C4)cs3)CC2)n1 (centres unmarked) [Compound 31, 3-chloro-2-(3-(2-(1-(2-((4-methoxypyrimidin-2-yl)oxy)acetyl)piperidin-4-yl)thiazol-4-yl)-4,5-dihydroisoxazol-5-yl)benzonitrile]",≥ 70,≥ 70
"COc1ccnc(OCC(=O)N2CCC(c3nc(C4=NOC(c5c(Cl)cccc5OS(C)(=O)=O)C4)cs3)CC2)n1 (centres unmarked) [Compound 32, 3-chloro-2-(3-(2-(1-(2-((4-methoxypyrimidin-2-yl)oxy)acetyl)piperidin-4-yl)thiazol-4-yl)-4,5-dihydroisoxazol-5-yl)phenyl methanesulfonate]",≥ 70,≥ 70
"COc1ccnc(OCC(=O)N2CCC(c3nc(C4=NOC(c5c(Cl)cccc5Cl)C4)cs3)CC2)n1 (centres unmarked) [Compound 33, 1-(4-(4-(5-(2,6-dichlorophenyl)-4,5-dihydroisoxazol-3-yl)thiazol-2-yl)piperidin-1-yl)-2-((4-methoxypyrimidin-2-yl)oxy)ethan-1-one]",≥ 70,≥ 70
"COc1ccnc(OCC(=O)N2CCC(c3nc(C4=NOC(c5c(F)cccc5Cl)C4)cs3)CC2)n1 (centres unmarked) [Compound 34, 1-(4-(4-(5-(2-chloro-6-fluorophenyl)-4,5-dihydroisoxazol-3-yl)thiazol-2-yl)piperidin-1-yl)-2-((4-methoxypyrimidin-2-yl)oxy)ethan-1-one]",≥ 70,≥ 70
"COc1ccnc(OCC(=O)N2CCC(c3nc(C4=NOC(c5c(F)cccc5F)C4)cs3)CC2)n1 (centres unmarked) [Compound 36, 1-(4-(4-(5-(2,6-difluorophenyl)-4,5-dihydroisoxazol-3-yl)thiazol-2-yl)piperidin-1-yl)-2-((4-methoxypyrimidin-2-yl)oxy)ethan-1-one]",≥ 70,≥ 70
"O=C(COc1ccc(C(F)(F)F)nn1)N1CCC(c2nc(C3=NOC(c4c(Cl)cc(Cl)cc4Cl)C3)cs2)CC1 (centres unmarked) [Compound 37, 1-(4-(4-(5-(2,4,6-trichlorophenyl)-4,5-dihydroisoxazol-3-yl)thiazol-2-yl)piperidin-1-yl)-2-((6-(trifluoromethyl)pyridazin-3-yl)oxy)ethan-1-one]",≥ 70,≥ 70
"O=C(COc1ccc(C(F)(F)F)nn1)N1CCC(c2nc(C3=NOC(c4c(Cl)cccc4Cl)C3)cs2)CC1 (centres unmarked) [Compound 38, 1-(4-(4-(5-(2,6-dichlorophenyl)-4,5-dihydroisoxazol-3-yl)thiazol-2-yl)piperidin-1-yl)-2-((6-(trifluoromethyl)pyridazin-3-yl)oxy)ethan-1-one]",≥ 70,≥ 70
"O=C(COc1ccc(C(F)(F)F)nn1)N1CCC(c2nc(C3=NOC(c4c(F)cccc4Cl)C3)cs2)CC1 (centres unmarked) [Compound 39, 1-(4-(4-(5-(2-chloro-6-fluorophenyl)-4,5-dihydroisoxazol-3-yl)thiazol-2-yl)piperidin-1-yl)-2-((6-(trifluoromethyl)pyridazin-3-yl)oxy)ethan-1-one]",≥ 70,≥ 70
"N#Cc1cccc(Cl)c1C1CC(c2csc(C3CCN(C(=O)COc4ccc(C(F)(F)F)nn4)CC3)n2)=NO1 (centres unmarked) [Compound 40, 3-chloro-2-(3-(2-(1-(2-((6-(trifluoromethyl)pyridazin-3-yl)oxy)acetyl)piperidin-4-yl)thiazol-4-yl)-4,5-dihydroisoxazol-5-yl)benzonitrile]",≥ 70,≥ 70
"CS(=O)(=O)Oc1cccc(Cl)c1C1CC(c2csc(C3CCN(C(=O)COc4ccc(C(F)(F)F)nn4)CC3)n2)=NO1 (centres unmarked) [Compound 41, 3-chloro-2-(3-(2-(1-(2-((6-(trifluoromethyl)pyridazin-3-yl)oxy)acetyl)piperidin-4-yl)thiazol-4-yl)-4,5-dihydroisoxazol-5-yl)phenyl methanesulfonate]",≥ 70,≥ 70
"O=C(COc1ccc(C(F)(F)F)nn1)N1CCC(c2nc(C3=NOC(c4c(F)cccc4F)C3)cs2)CC1 (centres unmarked) [Compound 42, 1-(4-(4-(5-(2,6-difluorophenyl)-4,5-dihydroisoxazol-3-yl)thiazol-2-yl)piperidin-1-yl)-2-((6-(trifluoromethyl)pyridazin-3-yl)oxy)ethan-1-one]",≥ 70,≥ 70
"O=C(COc1ccc(C(F)(F)F)nn1)N1CCC(c2nc(C3=NOC(c4c(F)cccc4Br)C3)cs2)CC1 (centres unmarked) [Compound 43, 1-(4-(4-(5-(2-bromo-6-fluorophenyl)-4,5-dihydroisoxazol-3-yl)thiazol-2-yl)piperidin-1-yl)-2-((6-(trifluoromethyl)pyridazin-3-yl)oxy)ethan-1-one]",≥ 70,≥ 70
"O=C(COc1nccnc1C(F)(F)F)N1CCC(c2nc(C3OCc4c(F)ccc(F)c4CO3)cs2)CC1 [Compound 64, 1-(4-(4-(6,9-difluoro-1,5-dihydrobenzo[e][1,3]dioxepin-3-yl)thiazol-2-yl)piperidin-1-yl)-2-((3-(trifluoromethyl)pyrazin-2-yl)oxy)ethan-1-one]",≥ 70,≥ 70
